Experimental data taken from article PMC5598323 (Toxicology Reports, 2015).
Where two headings read alike, the source gives them in different places.

Experiments:
CYP3A4 = CYP3A4 (Homo sapiens, UniProt P08684); assay: CYP3A4 testosterone 6β-hydroxylase assay in human liver microsomes; format: in vitro ADME; settings: for inhibition of CYP3A4 in HLM (in words): even upto 50 μM concentrations
CYP2D6 = CYP2D6 (Homo sapiens, UniProt P10635); assay: CYP2D6 dextromethorphan O-demethylation assay in human liver microsomes; format: in vitro ADME; settings: for inhibition of CYP2D6 in HLM (in words): even upto 50 μM concentrations
CYP1A enzyme [1] = settings: rat liver microsomes; cited from earlier work
CYP1A enzyme [2] = settings: human liver microsomes; cited from earlier work
[3] = stated in discussion, no experiment and reference not given, cited from earlier work
CYP2C9 = CYP2C9 (Homo sapiens, UniProt P11712); assay: CYP2C9 diclofenac 4′-hydroxylation assay in human liver microsomes; settings: for inhibition of CYP2C9 in HLM (in words): even upto 50 μM concentrations
[4] = IC50 values CYP3A4 (in μg/ml, in brackets), HLM, μM bound converted to μg/ml
[5] = IC50 values CYP3A4, HLM, testosterone 100 μM, tested 1–50 μM
[6] = IC50 values CYP2D6 (in μg/ml, in brackets), HLM, μM bound converted to μg/ml
[7] = IC50 values CYP2D6, HLM, dextromethorphan 8 μM, tested 1–50 μM
[8] = IC50 values CYP2C9 (in μg/ml, in brackets), HLM, μM bound converted to μg/ml
[9] = IC50 values CYP2C9, HLM, diclofenac 50 μM, tested 1–50 μM

Chain of CYP2C9 (P11712 whole entry): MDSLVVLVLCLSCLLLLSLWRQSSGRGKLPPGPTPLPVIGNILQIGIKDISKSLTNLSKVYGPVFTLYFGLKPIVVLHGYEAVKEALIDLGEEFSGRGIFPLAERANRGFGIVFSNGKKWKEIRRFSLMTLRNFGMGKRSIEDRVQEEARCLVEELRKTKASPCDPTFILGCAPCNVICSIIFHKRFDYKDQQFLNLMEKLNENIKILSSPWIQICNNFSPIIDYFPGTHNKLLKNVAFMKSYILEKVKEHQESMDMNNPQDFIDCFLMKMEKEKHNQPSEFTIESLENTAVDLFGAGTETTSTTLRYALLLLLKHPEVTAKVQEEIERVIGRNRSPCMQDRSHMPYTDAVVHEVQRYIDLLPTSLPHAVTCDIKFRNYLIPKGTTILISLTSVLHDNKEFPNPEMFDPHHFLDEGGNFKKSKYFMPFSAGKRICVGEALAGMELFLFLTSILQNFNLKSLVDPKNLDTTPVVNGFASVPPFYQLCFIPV
Chain of CYP2D6 (P10635 whole entry): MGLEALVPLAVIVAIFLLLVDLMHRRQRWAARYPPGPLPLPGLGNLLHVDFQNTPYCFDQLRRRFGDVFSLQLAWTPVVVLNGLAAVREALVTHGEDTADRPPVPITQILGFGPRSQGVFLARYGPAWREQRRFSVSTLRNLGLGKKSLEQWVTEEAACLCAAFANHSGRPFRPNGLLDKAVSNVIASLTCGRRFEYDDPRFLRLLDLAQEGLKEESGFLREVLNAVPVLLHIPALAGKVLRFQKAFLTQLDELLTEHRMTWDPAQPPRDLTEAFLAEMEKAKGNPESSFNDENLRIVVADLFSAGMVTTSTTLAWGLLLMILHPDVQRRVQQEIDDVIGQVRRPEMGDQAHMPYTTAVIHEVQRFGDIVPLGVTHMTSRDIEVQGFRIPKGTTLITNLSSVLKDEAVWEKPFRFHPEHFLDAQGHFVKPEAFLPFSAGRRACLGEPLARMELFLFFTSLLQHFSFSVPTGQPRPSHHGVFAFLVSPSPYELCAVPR
Chain of CYP3A4 (P08684 whole entry): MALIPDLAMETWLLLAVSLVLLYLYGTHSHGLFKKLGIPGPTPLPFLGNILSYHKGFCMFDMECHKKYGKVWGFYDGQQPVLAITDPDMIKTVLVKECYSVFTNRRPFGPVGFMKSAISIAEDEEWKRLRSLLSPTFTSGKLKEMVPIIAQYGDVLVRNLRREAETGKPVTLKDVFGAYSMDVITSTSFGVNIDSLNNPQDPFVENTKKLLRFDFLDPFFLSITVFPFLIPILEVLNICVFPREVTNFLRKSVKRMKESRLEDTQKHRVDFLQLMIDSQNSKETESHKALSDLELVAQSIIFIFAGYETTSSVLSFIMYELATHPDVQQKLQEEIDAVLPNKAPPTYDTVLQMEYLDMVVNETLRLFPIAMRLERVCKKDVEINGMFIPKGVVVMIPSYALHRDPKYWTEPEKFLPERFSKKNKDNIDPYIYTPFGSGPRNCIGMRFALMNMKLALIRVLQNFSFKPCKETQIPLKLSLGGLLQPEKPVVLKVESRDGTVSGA

SMILES	IC50 (CYP3A4; [4])	IC50 (CYP3A4; [5])	inhibition of CYP3A4 in HLM (in words) (CYP3A4)	IC50 (CYP2D6; [6])	IC50 (CYP2D6; [7])	inhibition of CYP2D6 in HLM (in words) (CYP2D6)	inhibition of CYP1A enzyme (in words) (CYP1A enzyme [1])	inhibition of CYP1A enzyme (in words) (CYP1A enzyme [2])	solubility in hexane ([3]; hexane)	solubility in methanol [3]	IC50 (CYP2C9; [8])	IC50 (CYP2C9; [9])	inhibition of CYP2C9 in HLM (in words) (CYP2C9)	solubility in water ([3]; water)
CC1(C)CC[C@]2(C(=O)O)CC[C@]3(C)C(=CC[C@@H]4[C@@]5(C)C[C@@H](O)[C@H](O)[C@@](C)(CO)[C@@H]5CC[C@]43C)[C@@H]2[C@@H]1O [Arjungenin, arjungenin]	> 49.5 µM	> 50 µM	no significant inhibition	> 49.5 µM	> 50 µM	no significant inhibition	did not show inhibition	did not show inhibition	insoluble	freely soluble	> 49.5 µM	> 50 µM	no significant inhibition	–
CC1(C)CC[C@]2(C(=O)O)CC[C@]3(C)C(=CC[C@@H]4[C@@]5(C)C[C@@H](O)[C@H](O)C(C)(C)[C@@H]5CC[C@]43C)[C@@H]2[C@@H]1O [Arjunic acid]	> 51.2 µM	> 50 µM	no significant inhibition	> 51.2 µM	> 50 µM	no significant inhibition	did not show inhibition	did not show inhibition	–	freely soluble	> 51.2 µM	> 50 µM	no significant inhibition	insoluble
